According to PubChem BioAssay (NCI):
“And” between values parts separate entries of the source, which are not always exact repeats. Identical values can stand only once.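 1) Cells in 96-well plates. 2) Compound, 48 h, 5 concentrations. 3) Linear interpolation between surrounding doses. 4) Unreached endpoint = highest concentration. GI50 = concentration required for 50% inhibition of growth. The concentration for full growth arrest is given as TGI.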

Assays:
Assay in all cases: NCI-60 cell line screen, 48 h
HCT-116 colon = test system: HCT-116 colon
IGROV1 ovarian = test system: IGROV1 ovarian
KM12 colon = test system: KM12 colon
MOLT-4 leukemia = test system: MOLT-4 leukemia
NCI-H522 lung = test system: NCI-H522 lung
OVCAR-4 ovarian = test system: OVCAR-4 ovarian
SK-MEL-28 melanoma = test system: SK-MEL-28 melanoma
SW-620 colon = test system: SW-620 colon
UO-31 renal = test system: UO-31 renal
SF-539 CNS = test system: SF-539 CNS

COc1ccc2c(c1)/C(=C\c1cccnc1)C(=O)N2
GI50 (HCT-116 colon): 9.72 µM | TGI (HCT-116 colon): > 100 µM | GI50 (IGROV1 ovarian): 32.2 µM | TGI (IGROV1 ovarian): > 100 µM | GI50 (KM12 colon): 19.7 µM | TGI (KM12 colon): 57.8 µM | GI50 (MOLT-4 leukemia): 23 µM | TGI (MOLT-4 leukemia): > 100 µM | GI50 (NCI-H522 lung): 17.8 µM | TGI (NCI-H522 lung): 64 µM | GI50 (OVCAR-4 ovarian): 38.2 µM | TGI (OVCAR-4 ovarian): > 100 µM | GI50 (SK-MEL-28 melanoma): 23.4 µM | TGI (SK-MEL-28 melanoma): 64.7 µM | GI50 (SW-620 colon): 41 µM | TGI (SW-620 colon): > 100 µM | GI50 (UO-31 renal): 25.9 µM | TGI (UO-31 renal): > 100 µM

COC(=O)C(C(=O)C(=O)Nc1ccc(C(F)(F)F)cc1[N+](=O)[O-])c1csc(-n2nc(-c3ccccc3)cc2-c2ccccc2)n1 (stereo not drawn)
TGI (HCT-116 colon): > 100 µM | TGI (IGROV1 ovarian): > 100 µM | TGI (KM12 colon): > 100 µM | TGI (MOLT-4 leukemia): > 100 µM | TGI (NCI-H522 lung): > 100 µM | TGI (OVCAR-4 ovarian): > 100 µM | TGI (SF-539 CNS): > 100 µM | TGI (SW-620 colon): > 100 µM | TGI (UO-31 renal): > 100 µM

O=C(c1ccc(Cl)cc1)c1ccc(OCCCCCCCCCCOc2ccc(C(=O)c3ccc(Cl)cc3)cc2)cc1
TGI (IGROV1 ovarian): > 100 µM | TGI (KM12 colon): > 100 µM | TGI (MOLT-4 leukemia): > 100 µM | TGI (NCI-H522 lung): > 100 µM | TGI (SK-MEL-28 melanoma): > 100 µM | TGI (SW-620 colon): > 100 µM | TGI (UO-31 renal): > 100 µM

Clc1ccc(Cc2nc3ccccc3s2)c(Cl)c1
TGI (IGROV1 ovarian): 30.6 µM | TGI (KM12 colon): 34.9 µM | TGI (MOLT-4 leukemia): 41.2 µM | TGI (NCI-H522 lung): 30.9 µM | TGI (OVCAR-4 ovarian): 27 µM | TGI (SF-539 CNS): 12 µM | TGI (SK-MEL-28 melanoma): 33.1 µM | TGI (SW-620 colon): 46.4 µM | TGI (UO-31 renal): 30 µM

CC(=O)Nc1ccc(C(=O)NN2C(=O)C(Cl)C2c2ccc([N+](=O)[O-])cc2)cc1 (stereo not drawn)
TGI (HCT-116 colon): > 100 µM | TGI (IGROV1 ovarian): > 100 µM | TGI (MOLT-4 leukemia): > 100 µM | TGI (NCI-H522 lung): > 100 µM | TGI (OVCAR-4 ovarian): > 100 µM | TGI (SF-539 CNS): > 100 µM | TGI (SK-MEL-28 melanoma): > 100 µM | TGI (SW-620 colon): > 100 µM | TGI (UO-31 renal): > 100 µM

CC12N=NN(c3ccc([N+](=O)[O-])cc3)C1(O)c1ccccc1C2=O (stereo not drawn)
TGI (HCT-116 colon): > 100 µM | TGI (IGROV1 ovarian): > 100 µM | TGI (KM12 colon): > 100 µM | TGI (NCI-H522 lung): > 100 µM | TGI (SF-539 CNS): > 100 µM | TGI (SW-620 colon): > 100 µM | TGI (UO-31 renal): > 100 µM

C=CC1[C@H]2COC(C)(C)O[C@@H]2CC(=O)C1(C)C (stereo partly drawn)
TGI (HCT-116 colon): > 100 µM | TGI (KM12 colon): > 100 µM | TGI (NCI-H522 lung): > 100 µM | TGI (OVCAR-4 ovarian): > 100 µM | TGI (SF-539 CNS): > 100 µM | TGI (SK-MEL-28 melanoma): > 100 µM | TGI (SW-620 colon): > 100 µM | TGI (UO-31 renal): > 100 µM

CCCCc1c2c(nc3c1CCc1cc4cc5c(nc4nc1-3)-c1nc3c(c(CCCC)c1CC5)CCCC3)CCCC2
TGI (HCT-116 colon): > 100 µM | TGI (IGROV1 ovarian): > 100 µM | TGI (KM12 colon): > 100 µM | TGI (MOLT-4 leukemia): > 100 µM | TGI (NCI-H522 lung): > 100 µM | TGI (SF-539 CNS): > 100 µM | TGI (SK-MEL-28 melanoma): > 100 µM | TGI (SW-620 colon): > 100 µM | TGI (UO-31 renal): > 100 µM

CCCCCCCNc1nc(C(=O)OCC)ncc1-c1ccc(C(F)(F)F)cc1
GI50 (HCT-116 colon): 32 µM | TGI (HCT-116 colon): > 100 µM | GI50 (IGROV1 ovarian): 24.7 µM | TGI (IGROV1 ovarian): 70.9 µM | GI50 (KM12 colon): 33.6 µM | TGI (KM12 colon): > 100 µM | GI50 (MOLT-4 leukemia): 34.4 µM | TGI (MOLT-4 leukemia): 96.2 µM | GI50 (NCI-H522 lung): 31.3 µM | TGI (NCI-H522 lung): > 100 µM | GI50 (OVCAR-4 ovarian): 13.8 µM | TGI (OVCAR-4 ovarian): > 100 µM | GI50 (SK-MEL-28 melanoma): 66.2 µM | TGI (SK-MEL-28 melanoma): > 100 µM | GI50 (SW-620 colon): 41.5 µM | TGI (SW-620 colon): > 100 µM | GI50 (UO-31 renal): 16.4 µM | TGI (UO-31 renal): 77.1 µM

CCc1cccc(C(C)C)c1NC(=O)C(=O)CC(=O)c1c(C)n([O-])c2ccccc2[n+]1=O
TGI (HCT-116 colon): > 100 µM | TGI (IGROV1 ovarian): > 100 µM | TGI (MOLT-4 leukemia): > 100 µM | TGI (NCI-H522 lung): > 100 µM | TGI (OVCAR-4 ovarian): > 100 µM | TGI (SF-539 CNS): > 100 µM | TGI (SK-MEL-28 melanoma): > 100 µM | TGI (SW-620 colon): > 100 µM | TGI (UO-31 renal): > 100 µM

CC(C)C1(O)C(c2ccccc2)=C(c2ccccc2)C(c2ccccc2)=C1c1ccccc1
TGI (HCT-116 colon): 13.4 µM | TGI (IGROV1 ovarian): > 100 µM | TGI (KM12 colon): 17.9 µM | TGI (MOLT-4 leukemia): 9.27 µM | TGI (NCI-H522 lung): 23.9 µM | TGI (OVCAR-4 ovarian): > 100 µM | TGI (SF-539 CNS): 28.6 µM | TGI (SW-620 colon): > 100 µM | TGI (UO-31 renal): 23.7 µM

CC[C@@]1(O)C[C@H](OC2CC(N(C)C)C(OC3CC(O)C(OC4CCC(=O)C(C)O4)C(C)O3)C(C)O2)c2c(cc3c(c2O)C(=O)c2c(O)cccc2C3=O)[C@H]1C(=O)OC (stereo partly drawn)
TGI (KM12 colon): 0.519 µM and 0.56 µM | TGI (OVCAR-4 ovarian): 0.221 µM and 0.196 µM | TGI (SF-539 CNS): 0.0917 µM and 0.216 µM | TGI (SK-MEL-28 melanoma): 0.142 µM and 0.453 µM

CS(=O)(=O)OCCN1CCN(C(=O)c2cccc3c(Nc4ccc(S(=O)(=O)N=C(N)N)cc4)c4ccccc4nc23)CC1
TGI (HCT-116 colon): > 100 µM | TGI (IGROV1 ovarian): > 100 µM | TGI (KM12 colon): > 100 µM | TGI (MOLT-4 leukemia): > 100 µM | TGI (OVCAR-4 ovarian): > 100 µM | TGI (SF-539 CNS): > 100 µM | TGI (SK-MEL-28 melanoma): > 100 µM | TGI (UO-31 renal): > 100 µM

Cc1c(S(C)(=O)=O)c(-c2cc(F)cc(N3CCN(c4ccc(NS(=O)(=O)c5ccc(N[C@H](CCN6CCC(C(=O)OCCCP(=O)(O)O)CC6)CSc6ccccc6)c(S(=O)(=O)C(F)(F)F)c5)cc4)CC3)c2)c(-c2ccc(Cl)cc2)n1C(C)C
GI50 (HCT-116 colon): > 100 µM | TGI (HCT-116 colon): > 100 µM | GI50 (IGROV1 ovarian): > 100 µM | TGI (IGROV1 ovarian): > 100 µM | GI50 (KM12 colon): > 100 µM | TGI (KM12 colon): > 100 µM | GI50 (NCI-H522 lung): > 100 µM | TGI (NCI-H522 lung): > 100 µM | GI50 (OVCAR-4 ovarian): > 100 µM | TGI (OVCAR-4 ovarian): > 100 µM | GI50 (SF-539 CNS): > 100 µM | TGI (SF-539 CNS): > 100 µM | GI50 (SK-MEL-28 melanoma): > 100 µM | TGI (SK-MEL-28 melanoma): > 100 µM | GI50 (SW-620 colon): > 100 µM | TGI (SW-620 colon): > 100 µM | GI50 (UO-31 renal): > 100 µM | TGI (UO-31 renal): > 100 µM

CCCCCCCCCCCCCCN
TGI (HCT-116 colon): > 100 µM | TGI (IGROV1 ovarian): > 100 µM | TGI (KM12 colon): > 100 µM | TGI (MOLT-4 leukemia): > 100 µM | TGI (NCI-H522 lung): > 100 µM | TGI (OVCAR-4 ovarian): > 100 µM | TGI (SK-MEL-28 melanoma): > 100 µM | TGI (SW-620 colon): > 100 µM

O=C(Nc1cccc([N+](=O)[O-])c1)C(=O)C(C(=O)c1ccccc1-c1ccccc1)C1OC(=O)c2ccccc21 (stereo not drawn)
TGI (HCT-116 colon): 26.6 µM | TGI (IGROV1 ovarian): 98.8 µM | TGI (KM12 colon): 44.2 µM | TGI (MOLT-4 leukemia): 52.4 µM | TGI (NCI-H522 lung): 26.2 µM | TGI (SF-539 CNS): 28.4 µM | TGI (SK-MEL-28 melanoma): 67.6 µM | TGI (SW-620 colon): 73.6 µM | TGI (UO-31 renal): 51.8 µM

O=C1C=C(NCCNC(=S)Nc2ccccc2)c2nccc3c2c1nc1ccccc13
GI50 (HCT-116 colon): 14 µM | TGI (HCT-116 colon): > 100 µM | GI50 (IGROV1 ovarian): 56.8 µM | TGI (IGROV1 ovarian): > 100 µM | GI50 (KM12 colon): 41.2 µM | TGI (KM12 colon): > 100 µM | GI50 (NCI-H522 lung): 46.8 µM | TGI (NCI-H522 lung): > 100 µM | GI50 (OVCAR-4 ovarian): 92.7 µM | TGI (OVCAR-4 ovarian): > 100 µM | GI50 (SF-539 CNS): 49.1 µM | TGI (SF-539 CNS): > 100 µM | GI50 (SK-MEL-28 melanoma): > 100 µM | TGI (SK-MEL-28 melanoma): > 100 µM | GI50 (SW-620 colon): 32.2 µM | TGI (SW-620 colon): > 100 µM | GI50 (UO-31 renal): > 100 µM | TGI (UO-31 renal): > 100 µM

Cn1nc(-c2ccccc2)c(C(=O)/C=C/c2ccc(F)cc2)c(N2CCCCC2)c1=O
TGI (HCT-116 colon): 11.5 µM | TGI (IGROV1 ovarian): 38.2 µM | TGI (MOLT-4 leukemia): 7.09 µM | TGI (NCI-H522 lung): 28.7 µM | TGI (SF-539 CNS): 16.4 µM | TGI (SK-MEL-28 melanoma): 16.2 µM | TGI (SW-620 colon): 45.3 µM | TGI (UO-31 renal): 19.1 µM

O=C(/C=C/C12c3ccccc3C(c3ccccc31)C1C(=O)N(c3ccccc3)C(=O)C12)c1ccccc1 (stereo not drawn)
GI50 (HCT-116 colon): 0.695 µM | TGI (HCT-116 colon): 2.07 µM | GI50 (IGROV1 ovarian): 2.06 µM | TGI (IGROV1 ovarian): 6.05 µM | GI50 (KM12 colon): 2.64 µM | TGI (KM12 colon): > 100 µM | GI50 (MOLT-4 leukemia): 1.23 µM | TGI (MOLT-4 leukemia): > 100 µM | GI50 (NCI-H522 lung): 1.59 µM | TGI (NCI-H522 lung): 4.45 µM | GI50 (OVCAR-4 ovarian): 2.94 µM | TGI (OVCAR-4 ovarian): > 100 µM | GI50 (SF-539 CNS): 2.09 µM | TGI (SF-539 CNS): 5.14 µM | GI50 (SK-MEL-28 melanoma): 2.48 µM | TGI (SK-MEL-28 melanoma): 7.09 µM | GI50 (SW-620 colon): 2.74 µM | TGI (SW-620 colon): > 100 µM
